Earlier results as cited in paper PMC7582727, “Functional Impact of BeKm-1, a High-Affinity hERG Blocker, on Cardiomyocytes Derived from Human-Induced Pluripotent Stem Cells” (International Journal of Molecular Sciences, 2020).

Legend:
hERG channel = conditions: cited from earlier work
From the text: The Kv11.1 channel (hERG) and the corresponding IKr current play a major role in cardiac repolarization (Figure S1). […] Long QT syndrome is one of the cardiac diseases that has been studied in the greatest detail. Type II long QT syndrome is associated with a decrease in IKr currents, as opposed to short QT syndrome, which is associated with increased IKr currents. Type II long QT syndrome is called “inherited” when a mutation in the gene encoding hERG, KCNH2, gives rise to a loss of ... || In this report, we focused on BeKm-1, a toxin that was originally isolated from the venom of Buthus eupeus scorpion. […] According to its 3D structure, the peptide adopts an α-helix and three β-strands organized in a twisted antiparallel β-sheet. By homology with other toxins, BeKm-1 is a member of the γ-KTx subfamily of scorpion toxins.

integrated models = conditions: ref [15]; cited from earlier work
rabbit isolated hearts = conditions: ref [14]; cited from earlier work
hiPS-CMs = conditions: ref [13]; cited from earlier work
From the text: In this study, we describe the effects of the high-affinity hERG blocker BeKm-1 on hiPS-CMs. By using a variety of approaches, we efficiently assessed these effects on the electrophysiological, calcium handling, and contractile properties of hiPS-CMs providing a large response picture of this natural peptide.

Question: Which hERG channel block (hERG channel; non-selective compounds, no reference given) does the source give for `CN(C)CCCN1c2ccccc2Sc2ccc(Cl)cc21` [chlorpromazine] here?
Answer: block hERG channels

Question: For `CN(CCOc1ccc(NS(C)(=O)=O)cc1)CCc1ccc(NS(C)(=O)=O)cc1` [dofetilide], which bradycardic effects (integrated models) is on record?
Answer: bradycardic effects

Question: And the “chronotropic response, rabbit isolated hearts” value (rabbit isolated hearts)?
Answer: negative chronotropic response

Question: What about the “chronotropic response, hiPS-CMs” value (hiPS-CMs) of the same molecule?
Answer: negative chronotropic response

Question: With `COc1ccc(CCN2CCC(Nc3nc4ccccc4n3Cc3ccc(F)cc3)CC2)cc1` [astemizole] as the molecule, how does the IC50 (hERG channel) read?
Answer: […]

Question: What about the “face of hERG channel acted on” value (hERG channel) of the same molecule?
Answer: […]
